Measured values from the supplement of paper PMC10883282.

Assays:
Assay in all cases: relative viability vs DMSO control (72 h) (fraction); higher = more viable cells
RD-ES = tested on: RD-ES
Outline: (§1)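 ATPLite readings, expressed as percent growth and averaged over up to triplicate wells, provided relative viability. Before reading, sarcoma cell lines seeded in 384-well plates to reach 80–90% confluence received 2.5 µl of serially diluted compound after 24 h, from source plates of 10 mM to 0.0002 mM. Plates were held 72 h at 37 °C, 5% CO2, with 0.1% DMSO as vehicle and a 5 µM positive control. The data were rescaled to 1 for full and 0 for none.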

HS729 = tested on: HS729
Outline: as §1

RD = tested on: RD
Outline: as §1

HT1080 = tested on: HT1080
Outline: as §1

SW684 = tested on: SW684
Outline: as §1

SW1353 = tested on: SW1353
Outline: as §1

KHOS-240S = tested on: KHOS-240S
Outline: as §1

SYO-1 = tested on: SYO-1
Outline: as §1

KHOS-NP = tested on: KHOS-NP
Outline: as §1

SW872 = tested on: SW872
Outline: as §1

SK-LMS-1 = tested on: SK-LMS-1
Outline: as §1

G401 = tested on: G401
Outline: as §1

C=CC(=O)N1CCC(CNc2ncnc(N)c2-c2ccc(Oc3ccccc3)cc2)CC1 [Evobrutinib]
Details	relative viability
G401, 0.00017 µM	1.05
G401, 0.00051 µM	1.01
G401, 0.00152 µM	1.01
G401, 0.00457 µM	1.02
G401, 0.01372 µM	1.03
G401, 0.04115 µM	1.03
G401, 0.1235 µM	1
G401, 0.3704 µM	1.02
G401, 1.111 µM	0.982
G401, 3.333 µM	1
G401, 10 µM	0.894
HS729, 0.00017 µM	1.08
HS729, 0.00051 µM	1.09
HS729, 0.00152 µM	1.04
HS729, 0.00457 µM	1.07
HS729, 0.01372 µM	1.03
HS729, 0.04115 µM	0.991
HS729, 0.1235 µM	1.01
HS729, 0.3704 µM	1.01
HS729, 1.111 µM	0.978
HS729, 3.333 µM	0.938
HS729, 10 µM	0.862
HT1080, 0.00017 µM	1.11
HT1080, 0.00051 µM	1.1
HT1080, 0.00152 µM	1.1
HT1080, 0.00457 µM	1.14
HT1080, 0.01372 µM	1.082
HT1080, 0.04115 µM	1.08
HT1080, 0.1235 µM	1.091
HT1080, 0.3704 µM	1.078
HT1080, 1.111 µM	1.07
HT1080, 3.333 µM	1.1
HT1080, 10 µM	1.08
KHOS-240S, 0.00017 µM	1.09
KHOS-240S, 0.00051 µM	1.06
KHOS-240S, 0.00152 µM	1.08
KHOS-240S, 0.00457 µM	1.12
KHOS-240S, 0.01372 µM	1.1
KHOS-240S, 0.04115 µM	1.09
KHOS-240S, 0.1235 µM	1.08
KHOS-240S, 0.3704 µM	1.07
KHOS-240S, 1.111 µM	1.07
KHOS-240S, 3.333 µM	1.04
KHOS-240S, 10 µM	1.03
KHOS-NP, 0.00017 µM	1.11
KHOS-NP, 0.00051 µM	1.13
KHOS-NP, 0.00152 µM	1.13
KHOS-NP, 0.00457 µM	1.13
KHOS-NP, 0.01372 µM	1.12
KHOS-NP, 0.04115 µM	1.128
KHOS-NP, 0.1235 µM	1.12
KHOS-NP, 0.3704 µM	1.12
KHOS-NP, 1.111 µM	1.12
KHOS-NP, 3.333 µM	1.12
KHOS-NP, 10 µM	1.12
RD, 0.00017 µM	1.06
RD, 0.00051 µM	1.09
RD, 0.00152 µM	1.09
RD, 0.00457 µM	1.08
RD, 0.01372 µM	1.11
RD, 0.04115 µM	1.11
RD, 0.1235 µM	1.12
RD, 0.3704 µM	1.09
RD, 1.111 µM	1.08
RD, 3.333 µM	1.07
RD, 10 µM	1.11
RD-ES, 0.00017 µM	0.985
RD-ES, 0.00051 µM	1
RD-ES, 0.00152 µM	0.99
RD-ES, 0.00457 µM	1
RD-ES, 0.01372 µM	1
RD-ES, 0.04115 µM	1.03
RD-ES, 0.1235 µM	1.01
RD-ES, 0.3704 µM	0.981
RD-ES, 1.111 µM	0.9603
RD-ES, 3.333 µM	0.976
RD-ES, 10 µM	0.946
SK-LMS-1, 0.00017 µM	1.08
SK-LMS-1, 0.00051 µM	1.1
SK-LMS-1, 0.00152 µM	1.08
SK-LMS-1, 0.00457 µM	1.08
SK-LMS-1, 0.01372 µM	1.04
SK-LMS-1, 0.04115 µM	1.11
SK-LMS-1, 0.1235 µM	1.11
SK-LMS-1, 0.3704 µM	1.05
SK-LMS-1, 1.111 µM	1.08
SK-LMS-1, 3.333 µM	0.997
SK-LMS-1, 10 µM	0.981
SW684, 0.00017 µM	1.15
SW684, 0.00051 µM	1.19
SW684, 0.00152 µM	1.2
SW684, 0.00457 µM	1.22
SW684, 0.01372 µM	1.2
SW684, 0.04115 µM	1.16
SW684, 0.1235 µM	1.22
SW684, 0.3704 µM	1.18
SW684, 1.111 µM	1.19
SW684, 3.333 µM	1.19
SW684, 10 µM	1.174
SW872, 0.00017 µM	1.05
SW872, 0.00051 µM	1.056
SW872, 0.00152 µM	1.04
SW872, 0.00457 µM	1.04
SW872, 0.01372 µM	1.03
SW872, 0.04115 µM	1.03
SW872, 0.1235 µM	1.07
SW872, 0.3704 µM	1.04
SW872, 1.111 µM	1.02
SW872, 3.333 µM	1.03
SW872, 10 µM	1.01
SW1353, 0.00017 µM	1.07
SW1353, 0.00051 µM	1.07
SW1353, 0.00152 µM	1.09
SW1353, 0.00457 µM	1.06
SW1353, 0.01372 µM	1.02
SW1353, 0.04115 µM	1.007
SW1353, 0.1235 µM	1.048
SW1353, 0.3704 µM	1.02
SW1353, 1.111 µM	0.974
SW1353, 3.333 µM	0.949
SW1353, 10 µM	0.853
SYO-1, 0.00017 µM	1.018
SYO-1, 0.00051 µM	1.02
SYO-1, 0.00152 µM	1.03
SYO-1, 0.00457 µM	1.02
SYO-1, 0.01372 µM	1.03
SYO-1, 0.04115 µM	0.998
SYO-1, 0.1235 µM	0.992
SYO-1, 0.3704 µM	0.994
SYO-1, 1.111 µM	0.965
SYO-1, 3.333 µM	0.953
SYO-1, 10 µM	0.894

CNC(=O)c1c(C)oc2cc(Oc3ncnc4cc(OC)c(OC)cc34)ccc12 [Fruquintinib]
Details	relative viability
G401, 0.00017 µM	0.988
G401, 0.00051 µM	1.02
G401, 0.00152 µM	1.02
G401, 0.00457 µM	0.986
G401, 0.01372 µM	1.03
G401, 0.04115 µM	1.01
G401, 0.1235 µM	0.965
G401, 0.3704 µM	0.953
G401, 1.111 µM	0.9
G401, 3.333 µM	0.698
G401, 10 µM	0.57
HS729, 0.00017 µM	1.09
HS729, 0.00051 µM	1
HS729, 0.00152 µM	0.959
HS729, 0.00457 µM	0.961
HS729, 0.01372 µM	0.908
HS729, 0.04115 µM	0.927
HS729, 0.1235 µM	0.896
HS729, 0.3704 µM	0.852
HS729, 1.111 µM	0.794
HS729, 3.333 µM	0.717
HS729, 10 µM	0.657
HT1080, 0.00017 µM	1.08
HT1080, 0.00051 µM	1.06
HT1080, 0.00152 µM	1.058
HT1080, 0.00457 µM	1.04
HT1080, 0.01372 µM	1.07
HT1080, 0.04115 µM	1.04
HT1080, 0.1235 µM	1.03
HT1080, 0.3704 µM	1.04
HT1080, 1.111 µM	1.054
HT1080, 3.333 µM	1.02
HT1080, 10 µM	1.01
KHOS-240S, 0.00017 µM	1.06
KHOS-240S, 0.00051 µM	1.07
KHOS-240S, 0.00152 µM	1.08
KHOS-240S, 0.00457 µM	1.07
KHOS-240S, 0.01372 µM	1.07
KHOS-240S, 0.04115 µM	1.08
KHOS-240S, 0.1235 µM	1.03
KHOS-240S, 0.3704 µM	0.987
KHOS-240S, 1.111 µM	0.9394
KHOS-240S, 3.333 µM	0.8
KHOS-240S, 10 µM	0.755
KHOS-NP, 0.00017 µM	1.114
KHOS-NP, 0.00051 µM	1.11
KHOS-NP, 0.00152 µM	1.11
KHOS-NP, 0.00457 µM	1.09
KHOS-NP, 0.01372 µM	1.11
KHOS-NP, 0.04115 µM	1.099
KHOS-NP, 0.1235 µM	1.08
KHOS-NP, 0.3704 µM	1.07
KHOS-NP, 1.111 µM	1.07
KHOS-NP, 3.333 µM	1.03
KHOS-NP, 10 µM	1.027
RD, 0.00017 µM	1.03
RD, 0.00051 µM	1.09
RD, 0.00152 µM	1.09
RD, 0.00457 µM	1.1
RD, 0.01372 µM	1.07
RD, 0.04115 µM	1.08
RD, 0.1235 µM	1.06
RD, 0.3704 µM	1.089
RD, 1.111 µM	1.08
RD, 3.333 µM	1.08
RD, 10 µM	1.04
RD-ES, 0.00017 µM	0.93
RD-ES, 0.00051 µM	0.979
RD-ES, 0.00152 µM	0.968
RD-ES, 0.00457 µM	0.952
RD-ES, 0.01372 µM	0.971
RD-ES, 0.04115 µM	0.935
RD-ES, 0.1235 µM	0.968
RD-ES, 0.3704 µM	0.934
RD-ES, 1.111 µM	0.945
RD-ES, 3.333 µM	0.917
RD-ES, 10 µM	0.928
SK-LMS-1, 0.00017 µM	1.11
SK-LMS-1, 0.00051 µM	1.1
SK-LMS-1, 0.00152 µM	1.106
SK-LMS-1, 0.00457 µM	1.1
SK-LMS-1, 0.01372 µM	1.1
SK-LMS-1, 0.04115 µM	1.07
SK-LMS-1, 0.1235 µM	1.07
SK-LMS-1, 0.3704 µM	1.04
SK-LMS-1, 1.111 µM	1.01
SK-LMS-1, 3.333 µM	0.976
SK-LMS-1, 10 µM	0.991
SW684, 0.00017 µM	1.15
SW684, 0.00051 µM	1.12
SW684, 0.00152 µM	1.16
SW684, 0.00457 µM	1.18
SW684, 0.01372 µM	1.15
SW684, 0.04115 µM	1.15
SW684, 0.1235 µM	1.1
SW684, 0.3704 µM	1.13
SW684, 1.111 µM	1.12
SW684, 3.333 µM	1.09
SW684, 10 µM	1.07
SW872, 0.00017 µM	1.09
SW872, 0.00051 µM	1.06
SW872, 0.00152 µM	1.03
SW872, 0.00457 µM	1.04
SW872, 0.01372 µM	1.03
SW872, 0.04115 µM	0.988
SW872, 0.1235 µM	1
SW872, 0.3704 µM	0.963
SW872, 1.111 µM	0.9736
SW872, 3.333 µM	0.893
SW872, 10 µM	0.852
SW1353, 0.00017 µM	1.051
SW1353, 0.00051 µM	1.02
SW1353, 0.00152 µM	1.02
SW1353, 0.00457 µM	1.01
SW1353, 0.01372 µM	1.02
SW1353, 0.04115 µM	1.01
SW1353, 0.1235 µM	0.997
SW1353, 0.3704 µM	0.925
SW1353, 1.111 µM	0.863
SW1353, 3.333 µM	0.746
SW1353, 10 µM	0.763
SYO-1, 0.00017 µM	1.01
SYO-1, 0.00051 µM	1.034
SYO-1, 0.00152 µM	0.971
SYO-1, 0.00457 µM	0.963
SYO-1, 0.01372 µM	0.921
SYO-1, 0.04115 µM	0.918
SYO-1, 0.1235 µM	0.817
SYO-1, 0.3704 µM	0.651
SYO-1, 1.111 µM	0.498
SYO-1, 3.333 µM	0.417
SYO-1, 10 µM	0.402
